{"source": "patent US10328130B2", "about": "“Modified hyaluronidases and uses in treating hyaluronan-associated diseases and conditions” (Halozyme, Inc., priority 2008, dated 2019)", "key": {"[1]": {"tested_on": "PC3 prostate cancer xenograft tumor", "experimental": "Tumor growth was monitored using VisualSonics Imaging Micro-ultrasound system. […] A control group of mice (G2) received 10 mg/kg docetaxel Q7D×2 intravenously on days 0 and 7. Another control group of mice received 30 mg/kg docetaxel Q7D×2 intravenously on days 0 and 7. […] A final control group that received only API buffer also was included in the study (G1). […] The Median Survival Time (MST) (in days) was calculated by median time to 1500 mm^3 tumor volume based on individual animals in each group. The % T/C is calculated by % T/C=(T/C)×100, where T is the median survival time to 1500 mm^3 tumor volume in the treated group and C is the median survival time to 1500 mm^3 tumor volume in the API buffer control group. By National Cancer Institute (NCI) criteria, a product with a % T/C over 125% is considered active. The Increase in Life Span (ILS) is a measure of anti-tumor activity calculated as [(T−C)/C]×100, where (T−C) is the difference in the median day to 1500 mm^3 tumor volume between the treated (T) and control (C) groups.\nA control group of mice were intravenously administered 6 mg/kg Doxil® liposomal doxorubicin on days 0, 7 and 14. […] A final control group that received only API buffer also was include in the study."}, "PC-3M-luc-C6 cells": {"tested_on": "PC-3M-luc-C6 cells", "test": "PC-3M-luc-C6 bone metastasis model: survival and bioluminescent imaging", "type": "in vivo, mouse", "settings": "for % survival: day 49", "description": "Due to the bioluminescence of the PC-3M-luc-C6 cells, in addition to monitoring the survival of the mice, the mice were imaged to visualize the PC-3M-luc-C6 metastases. Briefly, 7-10 week old nu/nu male mice (Charles River Laboratories) were anesthetized and injected with 3×10^6 PC-3M-luc-C6 cells (a bioluminescent human prostate carcinoma cell line) suspended in 50 μL sterile DPBS by intracardial injection on day 0. Mice were injected into the left ventricle of the heart by non-surgical means to increase the potential for metastasis from PC-3M-luc-C6 cells. The intracardiac injection of tumor cells bypasses the lungs and serves as a method to disperse cells into general circulation in order to allow seeding of metastasis in multiple tissues within an animal. A satisfactory injection into the left ventricle was detectable within minutes by bioluminescent imaging (BLI) and was identified by an immediate but transient systemic bioluminescence over the entire animal, as indicated by complete blue signal BLI of mice. An unsuccessful implantation produced a more localized signal generally isolated and sustained over time solely within the thoracic region of the animal. […] Mice with successful intra-cardiac injection of PC-3Mluc-C6 cells on day 0 (n=10−13 mice/Grp) were imaged twice a week for up to four weeks and subsequently followed up for survival till day 49 and beyond that time point.\nOn day 14, the mice were subjected to one of several treatment regimens. A set of control mice was administered API buffer (10 mM Hepes and 130 mM NaCl, pH 7.0) only on days 14, 16, 18, 21, 23, 25, 28, 30, and 32.\nThe in vivo bioluminescent signal from the jaw region of mice corresponds to micrometastases in the dental pulp, mandible or cervical lymph nodes. Lower limb in vivo signals corresponded to metastatic lesions identified in the tibia or femur leg bones. The thoracic signals that are observed in vivo are associated with residual tumor cells that had seeded into the heart, lung or the pleural surface of the chest cavity. Mice with images indicating a successful systemic injection on day 0 and showing in vivo evidence of metastasis by day 29 were included in the analysis of the treatment groups."}, "[2]": {"settings": "PEGylated rHuPH20 10,000 U/mouse and/or docetaxel 10 mg/kg IV"}, "[3]": {"settings": "PEGylated rHuPH20 10,000 U/mouse and/or Taxotere 10 mg/kg (admixed) IV"}, "[4]": {"settings": "Taxotere 30 mg/kg IV days 14 and 21"}}, "note": "Where two headings read alike, the source gives them in different places.", "data": [{"molecule": "CC(=O)O[C@@]12CO[C@@H]1C[C@H](O)[C@@]1(C)C(=O)[C@H](O)C3=C(C)[C@@H](OC(=O)[C@H](O)[C@@H](NC(=O)OC(C)(C)C)c4ccccc4)C[C@@](O)([C@@H](OC(=O)c4ccccc4)[C@H]21)C3(C)C", "note": "[Taxotere ® (docetaxel), docetaxel]", "values": [{"measurement": "Average Survival Time (to 1500 mm^3 tumor volume)", "setting": "[1]; [2]", "result": "38.96 ± 7.07"}, {"measurement": "MST (Median Survival Time to 1500 mm^3 tumor volume)", "setting": "[1]; [2]", "result": 32.9, "unit": "days"}, {"measurement": "Tumor volume", "setting": "[1]; day 4, PEGylated rHuPH20 10,000 U/mouse and/or docetaxel 10 mg/kg IV", "result": 687.27, "unit": "mm3"}, {"measurement": "Tumor volume", "setting": "[1]; day 4, docetaxel 30 mg/kg IV", "result": 497.04, "unit": "mm3"}, {"measurement": "Tumor volume", "setting": "[1]; day 13, PEGylated rHuPH20 10,000 U/mouse and/or docetaxel 10 mg/kg IV", "result": 869.25, "unit": "mm3"}, {"measurement": "Tumor volume", "setting": "[1]; day 13, docetaxel 30 mg/kg IV", "result": 401.12, "unit": "mm3"}, {"measurement": "Tumor volume", "setting": "[1]; day 21, PEGylated rHuPH20 10,000 U/mouse and/or docetaxel 10 mg/kg IV", "result": 1011.1, "unit": "mm3"}, {"measurement": "Tumor volume", "setting": "[1]; day 21, docetaxel 30 mg/kg IV", "result": 409.02, "unit": "mm3"}, {"measurement": "Tumor volume", "setting": "[1]; day 27, PEGylated rHuPH20 10,000 U/mouse and/or docetaxel 10 mg/kg IV", "result": 1260.7, "unit": "mm3"}, {"measurement": "Tumor volume", "setting": "[1]; day 27, docetaxel 30 mg/kg IV", "result": 291.65, "unit": "mm3"}, {"measurement": "Tumor volume", "setting": "[1]; day 35, PEGylated rHuPH20 10,000 U/mouse and/or docetaxel 10 mg/kg IV", "result": 1441.1, "unit": "mm3"}, {"measurement": "Tumor volume", "setting": "[1]; day 35, docetaxel 30 mg/kg IV", "result": 213.73, "unit": "mm3"}, {"measurement": "Tumor volume", "setting": "[1]; day 42, PEGylated rHuPH20 10,000 U/mouse and/or docetaxel 10 mg/kg IV", "result": 1552.1, "unit": "mm3"}, {"measurement": "Tumor volume", "setting": "[1]; day 42, docetaxel 30 mg/kg IV", "result": 147.05, "unit": "mm3"}, {"measurement": "Tumor volume", "setting": "[1]; day 50, docetaxel 30 mg/kg IV", "result": 130.2, "unit": "mm3"}, {"measurement": "Tumor volume", "setting": "[1]; day 61, docetaxel 30 mg/kg IV", "result": 343.03, "unit": "mm3"}, {"measurement": "Tumor volume", "setting": "[1]; day 73, docetaxel 30 mg/kg IV", "result": 865.5, "unit": "mm3"}, {"measurement": "Tumor volume", "setting": "[1]; day −1 (before treatment), PEGylated rHuPH20 10,000 U/mouse and/or docetaxel 10 mg/kg IV", "result": 470.39, "unit": "mm3"}, {"measurement": "Tumor volume", "setting": "[1]; day −1 (before treatment), docetaxel 30 mg/kg IV", "result": 471.34, "unit": "mm3"}, {"measurement": "% ILS", "setting": "[1]; increase in life span vs API buffer control, PEGylated rHuPH20 10,000 U/mouse and/or docetaxel 10 mg/kg", "result": 59, "unit": "%"}, {"measurement": "% T/C", "setting": "[1]; median survival time vs API buffer control, PEGylated rHuPH20 10,000 U/mouse and/or docetaxel 10 mg/kg", "result": 157, "unit": "%"}, {"measurement": "No. of animals alive at day 49", "setting": "PC-3M-luc-C6 cells; [3]", "result": 9}, {"measurement": "surviving animals at day 29", "setting": "PC-3M-luc-C6 cells; Taxotere 10 mg/kg or PEGylated rHuPH20 10,000 U/mouse alone", "result": "9 out of 12"}, {"measurement": "No. of animals alive at day 49", "setting": "PC-3M-luc-C6 cells; [4]", "result": 10}, {"measurement": "mice remaining alive at Day 29", "setting": "PC-3M-luc-C6 cells; [4]", "result": "10 out of 11"}, {"measurement": "% survival", "setting": "PC-3M-luc-C6 cells; [3]", "result": 75.00, "unit": "%"}, {"measurement": "% survival", "setting": "PC-3M-luc-C6 cells; [4]", "result": 90.91, "unit": "%"}]}]}
